Source: patent US20040014701A1, “Inhibiting retrotransposon and retroviral integration by targeting the atm pathway” (priority 2003, published 2004)

System: NIH3T3 cells
Assay: MTS formazan dye reduction cytotoxicity/cell viability assay
Description: Standard cytotoxicity/cell viability assays were performed using the CellTiter-96 Aqueous one solution MTS cell proliferation assay (Promega Inc) and using the standard conditions detailed in the manufacturer's instructions.
In addition, we also wanted to ensure that the observations made using the LUCIA were not due to any effects on luciferase expression or on the luciferase assay itself. For this reason, we looked at the effect of adding wortmannin and LY294002 to NIH3T3 cells containing the already integrated R229-Luc provirus.

| SMILES | cellular cytotoxicity (percentage of viable cells remaining after drug treatment) (MTS assay, concentrations used in LUCIA, FIG. 4C) | cellular cytotoxicity (percentage of viable cells remaining after drug treatment) (mouse) |
| --- | --- | --- |
| COC[C@H]1OC(=O)c2coc3c2[C@@]1(C)C1=C(C3=O)[C@@H]2CCC(=O)[C@@]2(C)C[C@H]1OC(C)=O [wortmannin] | slight cytotoxic effect at high concentrations | – |
| O=c1cc(N2CCOCC2)oc2c(-c3ccccc3)cccc12 [LY294002] | – | slight cytotoxic effect at high concentrations |
